Measured values published in ChEMBL document CHEMBL6078677, “Discovery and optimization of tetrahydroacridine derivatives as a novel class of antibiotics against multidrug-resistant Gram-positive pathogens by targeting type I signal peptidase and disrupting bacterial membrane” (Eur J Med Chem, 2025).
In brackets after ≈: the same amount, converted by molar mass. Numbered stars: 1 amine (or outer) side, 2 acyl side, 3 side chain; on linkers, the order of the positions; unused ones are H or OH. Bridge positions count the residues as written; N and C are the ends. Square brackets hold non-standard residues; d marks the D form. Side chains are listed from the residue outwards. Peptide text beside a SMILES is read from it. * marks the point of attachment. X1 = C[C@@H](O)[C@H](CN([C@@H](CCN)C(=O)[*:2])[*:1])N[*:3]; Octanoyl(6-Me) = CCC(C)CCCCC(=O)*; Dab = NCC[C@H](N)C(=O)O

Assays:
Klebsiella pneumoniae = test: Antimicrobial activity against Klebsiella pneumoniae 9-1 assessed as inhibition of visible growth of bacteria incubated for 20 hrs by broth microdilution method; type: functional
Pseudomonas aeruginosa [1] = test: Antimicrobial activity against Pseudomonas aeruginosa PA14 assessed as inhibition of visible growth of bacteria incubated for 20 hrs by broth microdilution method; type: functional
Salmonella enteritidis = test: Antimicrobial activity against Salmonella enteritis S1 assessed as inhibition of visible growth of bacteria incubated for 20 hrs by broth microdilution method; type: functional, Salmonella enterica subsp. enterica serovar Enteritidis; conditions: Salmonella enterica
Acinetobacter baumannii [2] = test: Antimicrobial activity against Acinetobacter baumannii 7979 assessed as inhibition of visible growth of bacteria incubated for 20 hrs by broth microdilution method; type: functional
Pseudomonas aeruginosa [3] = test: Antimicrobial activity against Pseudomonas aeruginosa PA01 assessed as inhibition of visible growth of bacteria incubated for 20 hrs by broth microdilution method; type: functional
Acinetobacter baumannii [4] = test: Antimicrobial activity against Acinetobacter baumannii AB11 assessed as inhibition of visible growth of bacteria incubated for 20 hrs by broth microdilution method; type: functional
Escherichia coli = test: Antimicrobial activity against Escherichia coli ATCC 25922 assessed as inhibition of visible growth of bacteria incubated for 20 hrs by broth microdilution method; type: functional
Streptococcus suis [5] = test: Antimicrobial activity against Streptococcus suis P1/7 assessed as inhibition of visible growth of bacteria incubated for 20 hrs by broth microdilution method; type: functional
Enterococcus faecalis [6] = test: microbe, parasite or virus in culture; type: functional; conditions: SF23-1, time 20 hrs
Description: Antimicrobial activity against Enterococcus faecalis SF23-1 harboring erythromycin-resistance rRNA methylase B, tetracycline efflux protein L and chloramphenicol-florfenicol resistance methylase assessed as inhibition of visible growth of bacteria incubated for 20 hrs by broth microdilution method

Staphylococcus aureus [7] = test: Antimicrobial activity against Staphylococcus aureus ATCC 29213 assessed as inhibition of visible growth of bacteria incubated for 20 hrs by broth microdilution method; type: functional
Enterococcus faecium [8] = test: Antimicrobial activity against Enterococcus faecium QF31 harboring erythromycin resistance rRNA methylase B and chloramphenicol-florfenicol resistance methylase assessed as inhibition of visible growth of bacteria incubated for 20 hrs by broth microdilution method; type: functional
Signal peptidase I = Signal peptidase I (Escherichia coli K-12, UniProt P00803); test: Binding affinity to recombinant 6His-tagged Escherichia coli LepB (77 to 324 residues) extracted from Escherichia coli BL21 (DE3) cells assessed as dissociation constant by MST analysis
Signal peptidase I, sequence (P00803 whole entry, the tested form may be a part): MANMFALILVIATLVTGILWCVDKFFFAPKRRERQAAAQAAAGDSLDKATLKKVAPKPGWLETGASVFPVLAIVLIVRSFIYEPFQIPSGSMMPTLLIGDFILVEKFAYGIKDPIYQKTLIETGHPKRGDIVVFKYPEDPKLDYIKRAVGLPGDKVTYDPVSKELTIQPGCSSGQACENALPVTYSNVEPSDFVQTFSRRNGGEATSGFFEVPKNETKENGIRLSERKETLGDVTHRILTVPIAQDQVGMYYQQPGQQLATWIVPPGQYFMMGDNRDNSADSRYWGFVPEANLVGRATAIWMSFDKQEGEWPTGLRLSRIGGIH

Enterococcus faecalis [9] = test: Antimicrobial activity against Enterococcus faecalis J2 harboring erythromycin-resistance rRNA methylase B and oxazolidinone phenicol transferable resistance gene assessed as inhibition of visible growth of bacteria incubated for 20 hrs by broth microdilution method; type: functional
Staphylococcus aureus [10] = test: Antimicrobial activity against Staphylococcus aureus YZSA-24 harboring erythromycin resistance rRNA methylase C and methicillin resistance gene resistance locus assessed as inhibition of visible growth of bacteria incubated for 20 hrs by broth microdilution method; type: functional
Enterococcus faecalis [11] = test: Antimicrobial activity against Enterococcus faecalis JH2-2 assessed as inhibition of visible growth of bacteria incubated for 20 hrs by broth microdilution method; type: functional
Streptococcus agalactiae = test: Antimicrobial activity against Streptococcus agalactiae DL03 harboring erythromycin-resistance rRNA methylase B assessed as inhibition of visible growth of bacteria incubated for 20 hrs by broth microdilution method; type: functional
Staphylococcus aureus [12] = test: Antimicrobial activity against Staphylococcus aureus YZSA-15 harboring erythromycin resistance rRNA methylase C and vancomycin resistance locus assessed as inhibition of visible growth of bacteria incubated for 20 hrs by broth microdilution method; type: functional
Streptococcus suis [13] = test: microbe, parasite or virus in culture; type: functional; conditions: SH0918, time 20 hrs
Description: Antimicrobial activity against Streptococcus suis SH0918 harboring erythromycin-resistance rRNA methylase B, tetracycline efflux protein O and oxazolidinone phenicol transferable resistance gene assessed as inhibition of visible growth of bacteria incubated for 20 hrs by broth microdilution method

Enterococcus faecalis [14] = test: Antimicrobial activity against Enterococcus faecalis ES01 harboring erythromycin-resistance rRNA methylase B and vanB-type vancomycin-resistance locus assessed as inhibition of visible growth of bacteria incubated for 20 hrs by broth microdilution method; type: functional
Streptococcus pyogenes = test: Antimicrobial activity against Streptococcus pyogenes DL02 harboring erythromycin-resistance rRNA methylase B assessed as inhibition of visible growth of bacteria incubated for 20 hrs by broth microdilution method; type: functional
Enterococcus faecium [15] = test: Antimicrobial activity against Enterococcus faecium MC38 harboring erythromycin resistance rRNA methylase B and oxazolidinone-phenicol transferable resistance gene assessed as inhibition of visible growth of bacteria incubated for 20 hrs by broth microdilution method; type: functional
Staphylococcus aureus [16] = test: Antimicrobial activity against Staphylococcus aureus YZSA-21 harboring erythromycin resistance rRNA methylase C assessed as inhibition of visible growth of bacteria incubated for 20 hrs by broth microdilution method; type: functional
Enterococcus faecium [17] = test: Antimicrobial activity against Enterococcus faecium HFY01 assessed as inhibition of visible growth of bacteria incubated for 20 hrs by broth microdilution method; type: functional

Structure (SMILES)	MIC (Klebsiella pneumoniae)	MIC (Pseudomonas aeruginosa [1])	MIC (Salmonella enteritidis)	MIC (Acinetobacter baumannii [2])	MIC (Pseudomonas aeruginosa [3])	MIC (Acinetobacter baumannii [4])	MIC (Escherichia coli)	MIC (Streptococcus suis [5])	MIC (Enterococcus faecalis [6])	MIC (Staphylococcus aureus [7])	MIC (Enterococcus faecium [8])	MIC (Enterococcus faecalis [9])	MIC (Staphylococcus aureus [10])	MIC (Enterococcus faecalis [11])	MIC (Streptococcus agalactiae)	MIC (Staphylococcus aureus [12])	MIC (Streptococcus suis [13])	MIC (Enterococcus faecalis [14])	MIC (Streptococcus pyogenes)	also measured
C[C@H]1[C@H](NC(=O)/C(=N\OC(C)(C)C(=O)O)c2csc(N)n2)C(=O)N1S(=O)(=O)O [AZTREONAM]	2 µg/mL (≈ 4.59 µM)	4 µg/mL (≈ 9.19 µM)	2 µg/mL (≈ 4.59 µM)	> 32 µg/mL	2 µg/mL (≈ 4.59 µM)	> 32 µg/mL	0.25 µg/mL (≈ 0.574 µM)													
C[C@@H](O)[C@H]1C(=O)N2C(C(=O)O)=C(S[C@@H]3CN[C@H](C(=O)N(C)C)C3)[C@H](C)[C@H]12 [MEROPENEM]	4 µg/mL (≈ 10.4 µM)	0.5 µg/mL (≈ 1.3 µM)	0.25 µg/mL (≈ 0.652 µM)	> 32 µg/mL	0.5 µg/mL (≈ 1.3 µM)	< 0.06 µg/mL	0.25 µg/mL (≈ 0.652 µM)													
CC1C/C(=C\c2ccc(-c3cccc(Cl)c3)o2)c2nc3ccccc3c(C(=O)O)c2C1 (racemic)								32 µg/mL (≈ 74.4 µM)	> 64 µg/mL	8 µg/mL (≈ 18.6 µM)	16 µg/mL (≈ 37.2 µM)									Kd (Signal peptidase I): 42.1 µM
CN[C@H](CC(C)C)C(=O)N[C@H]1C(=O)N[C@@H](CC(N)=O)C(=O)N[C@H]2C(=O)N[C@H]3C(=O)N[C@H](C(=O)N[C@H](C(=O)O)c4cc(O)cc(O)c4-c4cc3ccc4O)[C@H](O)c3ccc(c(Cl)c3)Oc3cc2cc(c3O[C@@H]2O[C@H](CO)[C@@H](O)[C@H](O)[C@H]2O[C@H]2C[C@](C)(N)[C@H](O)[C@H](C)O2)Oc2ccc(cc2Cl)[C@H]1O [VANCOMYCIN]								< 0.06 µg/mL	2 µg/mL (≈ 1.38 µM)			2 µg/mL (≈ 1.38 µM)	< 0.06 µg/mL	2 µg/mL (≈ 1.38 µM)	0.125 µg/mL (≈ 0.0863 µM)	16 µg/mL (≈ 11 µM)	< 0.06 µg/mL	16 µg/mL (≈ 11 µM)	< 0.06 µg/mL	
O=C(O)c1cn(C2CC2)c2cc(N3CCNCC3)c(F)cc2c1=O [CIPROFLOXACIN]								0.125 µg/mL (≈ 0.377 µM)	16 µg/mL (≈ 48.3 µM)	1 µg/mL (≈ 3.02 µM)	2 µg/mL (≈ 6.04 µM)	0.5 µg/mL (≈ 1.51 µM)	4 µg/mL (≈ 12.1 µM)	0.5 µg/mL (≈ 1.51 µM)	16 µg/mL (≈ 48.3 µM)	0.25 µg/mL (≈ 0.754 µM)	16 µg/mL (≈ 48.3 µM)	> 32 µg/mL	1 µg/mL (≈ 3.02 µM)	MIC (Enterococcus faecium [15]): 8 µg/mL (≈ 24.1 µM); MIC (Staphylococcus aureus [16]): 0.5 µg/mL (≈ 1.51 µM); MIC (Enterococcus faecium [17]): 1 µg/mL (≈ 3.02 µM)
CC(C)CCCCC(=O)N[C@@H](CCN)C(=O)N[C@@H](CN[C@@H](CCN)C(=O)N[C@H]1CCNC(=O)[C@H]([C@@H](C)O)NC(=O)[C@H](CCN)NC(=O)[C@H](CCN)NC(=O)[C@H](CC(C)C)NC(=O)[C@@H](CC(C)C)NC(=O)[C@H](CCN)NC1=O)[C@@H](C)O.CCC(C)CCCCC(=O)N[C@@H](CCN)C(=O)N[C@@H](CN[C@@H](CCN)C(=O)N[C@H]1CCNC(=O)[C@H]([C@@H](C)O)NC(=O)[C@H](CCN)NC(=O)[C@H](CCN)NC(=O)[C@H](CC(C)C)NC(=O)[C@@H](CC(C)C)NC(=O)[C@H](CCN)NC1=O)[C@@H](C)O (stereo partly drawn) (H-[X1]([Dab-Octanoyl(6-Me)])[Dab][Dab][dL]L[Dab][Dab]T; lactam 2-C)	0.5 µg/mL	< 0.06 µg/mL	0.5 µg/mL	< 0.06 µg/mL	0.125 µg/mL	8 µg/mL	1 µg/mL													
